Data as given in PMC5688156, “The natural product carolacton inhibits folate-dependent C1 metabolism by targeting FolD/MTHFD” (Nature Communications, 2017).
Where two headings read alike, the source gives them in different places.

How the values were obtained:
[1] = system: KB-3.1; test: Cytotoxicity screening, KB-3.1 (MTT); format: cell-based, human; details: for EC50: 5 d treatment, MTT
Experimental: Half maximal effective concentrations (EC50) on human cancer cell lines were determined as described elsewhere. Human cancer cell lines were maintained as recommended by the depositor (German Collection of Microorganisms and Cell Cultures, DSMZ) and were treated for 5 d with carolacton in serial dilution. The viability of adherent cell types, HCT-116 (ACC 581), KB-3.1 (ACC-158) and KB-V.1 (ACC-149) was assessed by the addition of MTT tetrazolium salt and absorbance measurement at 570 nm. Histiocytic lymphoma U-937 cells (ACC-5) were maintained in RPMI 1640 medium and transferred into folate-free medium prior to the assay. Cell viability was determined by measuring alamar blue fluorescence emission at 590 nm. The values were referenced and EC50 values were determined by sigmoidal curve fitting. The cell lines KB-3.1 and KB-V.1 are originally derived from HeLa, whereas the latter is an MDR subclone of KB-3.1. They were used to directly compare the activity of carolacton on an mdr1 overexpressing and a sensitive cell line.

[2] = molecular target: T1, hsMTHFD2 (Homo sapiens, UniProt P13995); test: hsMTHFD2 dehydrogenase (DH) enzyme assay; format: biochemical
T1 construct: His-tag (vector pHis-TEV) (cleaved yes); made in house; host or cells: E. coli BL21 (DE3)
T1 sequence (P13995 36-350): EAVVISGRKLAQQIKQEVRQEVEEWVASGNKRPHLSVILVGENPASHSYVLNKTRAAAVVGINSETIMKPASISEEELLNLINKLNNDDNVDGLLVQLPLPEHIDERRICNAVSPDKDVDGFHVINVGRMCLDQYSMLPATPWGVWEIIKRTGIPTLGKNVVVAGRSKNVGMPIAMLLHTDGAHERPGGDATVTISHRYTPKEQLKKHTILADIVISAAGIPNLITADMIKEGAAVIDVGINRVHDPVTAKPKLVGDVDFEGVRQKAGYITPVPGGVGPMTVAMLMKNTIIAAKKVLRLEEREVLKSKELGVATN
Experimental: (§1) (6R,S)-5,10-Methylene-5,6,7,8-tetrahydrofolic acid ((6R,S)-5,10-CH2-THF) calcium salt and (6R,S)-5,10-Methenyl-5,6,7,8-tetrahydrofolic acid ((6R,S)-5,10-CH=THF) chloride were purchased from Schircks Laboratories (Bauma, Switzerland) and used as substrates for FolD dehydrogenase and cyclohydrolase enzyme assays, respectively. Only the R-isomer, which accounts for 50% of (6R,S)-5,10-CH2-THF and (6R,S)-5,10-CH=THF, respectively, is used by the enzyme. (6R,S)-5,10-CH2-THF was dissolved in N2-spargeled basic buffer (50 mM Tris-HCl (pH 8.0), 100 mM β-mercaptoethanol) as described by Varshney et al.[25]. (6R,S)-5,10-CH=THF was dissolved in DMSO as a 100 mM stock solution.
Because FolD is a bifunctional enzyme, dehydrogenase and cyclohydrolase activities were determined for FolD enzyme kinetics, respectively. The dehydrogenase activity of FolD was assayed for its substrate 5,10-CH2-THF and cofactor NADP^+ (in the case of MTHFD2, NAD^+ was used as the cofactor) based on monitoring the formation of 5,10-CH=THF, while the cyclohydrolase activity of FolD was determined for its substrate 5,10-CH=THF by monitoring the hydrolysis of […]. The enzyme kinetics for the dehydrogenase activity of all FolDs except hsMTHFD1_DC were determined at 30 °C in 50 mM Tris-HCl (pH 7.5), 30 mM β-mercaptoethanol. The hsMTHFD1_DC dehydrogenase activity was measured in 25 mM MOPS (pH 7.3), 30 mM β-mercaptoethanol at 30 °C. To measure the enzyme kinetic constants for 5,10-CH2-THF, for example in the case of ecFolD, the NADP concentration was fixed at 1 mM and the concentration of 5,10-CH2-THF varied from 5 to 1500 μM (R-isomer). Similarly, to measure the kinetic constants of ecFolD for NADP^+, the concentration of 5,10-CH2-THF (R-isomer) was fixed at 1 mM and the concentration of NADP^+ varied from 10 to 1500 μM. For different FolDs, the varied concentration range of substrates could be different. […] To monitor the formation of 5,10-CH=THF, the absorbance of the reaction mixture was monitored at 350 nm in micro UV cuvettes (BRAND, Essex, Connecticut, USA). The concentration of 5,10-CH=THF produced in the reaction was determined using an extinction co-efficient of 0.0249 μM^−1 cm^−1. […] The consumption of 5,10-CH=THF was measured by recording the absorbance of the reactions at 355 nm using the TECAN Infinite 200 PRO equipped with a monochromator. […] The inhibition constants (K i) of carolacton on FolD were determined by measuring the apparent K m when adding certain amounts of carolacton to the enzyme reactions. […] To compare the inhibition effects of carolacton between the different FolDs, the half maximal inhibitory concentration (IC50) of carolacton on the same amount of enzyme was determined for FolDs involved in this study. […]

[3] = molecular target: T2, ecFolD G8S (Escherichia coli, UniProt P24186, G8S); test: ecFolD G8S mutant dehydrogenase (DH) enzyme assay; format: biochemical, E. coli
T2 construct: His-tag (TEV-cleavable, vector pHis-TEV); made in house; host or cells: E. coli BL21 (DE3)
Experimental: as §1
Because FolD is a bifunctional enzyme, dehydrogenase and cyclohydrolase activities were determined for FolD enzyme kinetics, respectively. The dehydrogenase activity of FolD was assayed for its substrate 5,10-CH2-THF and cofactor NADP^+ (in the case of MTHFD2, NAD^+ was used as the cofactor) based on monitoring the formation of 5,10-CH=THF, while the cyclohydrolase activity of FolD was determined for its substrate 5,10-CH=THF by monitoring the hydrolysis of […]. The enzyme kinetics for the dehydrogenase activity of all FolDs except hsMTHFD1_DC were determined at 30 °C in 50 mM Tris-HCl (pH 7.5), 30 mM β-mercaptoethanol. […]

CO[C@H](CC(=O)O)[C@@H](C)C(=O)[C@H](C)/C=C(\C)[C@H]1OC(=O)[C@H](O)[C@H](O)/C=C/[C@H](C)CCC[C@@H]1C [carolacton]
EC50 [1]: 11300 ± 3600 nM
EC50 ([1]; Homo sapiens, KB 3-1, 120 h): 11000 nM
Maximum inhibition ([1]; inhibition of cell growth, 5 d): >80%
IC50 ([2]; 10 nM enzyme, read-out: IC50, carolacton inhibition on DH activity): 6.5 nM
IC80 ([2]; 10 nM enzyme, read-out: IC80, carolacton inhibition on DH activity): 31.7 nM
Ki ([2]; cofactor is NAD+ in the case of hsMTHFD2, read-out: Ki (NADP+), carolacton inhibition on DH activity): 16.7 nM
Ki ([2]; vs 5,10-CH2-THF, read-out: Ki (5,10-CH2-THF), carolacton inhibition on DH activity): 6.42 nM
IC50 [3]: 86.5 nM
IC80 ([3]; read-out: IC80, carolacton inhibition on DH activity): 737 nM
